The text below walks through data of article PMC2120067 (The Journal of Cell Biology, 1994).

The subject of experiment [1] is angiogenic bovine aortic endothelial (BAE) cells. Briefly: Quantitation of endothelial cord formation. The format is cell-based.
Experiment [2] concerns new vessel growth in vivo. As to conditions: ref Raju et al., 1982; cited from earlier work.
The test system of experiment [3] is chicken chorioallantoic membrane (CAM). Briefly: CAM angiogenesis assay. The format is in vivo. As to conditions: methylcellulose disk on chick CAM.
A short description of experiment [4]: Copper-binding study by electrospray mass spectrometry. As to conditions: 10 µM KGHK and KGRK mixed with 8 µM Cu2+, electrospray MS.
Experiment [5] is described as follows: Magnesium-binding control by electrospray mass spectrometry. As to conditions: 20 µM KGHK + 50 µM MgSO4 in 20 mM NH4HCO3 (pH 7.5), electrospray MS.
Experiment [6] in a line: Spectroscopic analysis of copper binding. As to conditions: saturable; not displaced with 100-fold excesses of Na, K, Ca, or Mg ions; not shown.

Take “bovine serum albumin: control protein [reference compound]”: the “Stimulation of endothelial cord formation” value in experiment [1] (bovine serum albumin, concentration not given) is “no stimulatory effect”.
For the substance N-gly- cyl-L-histidyl-L-lysine-OH [GHK], the “Stimulation of endothelial cord formation, peptide pretreated with CuSO4” value in experiment [1] (pretreatment of peptide with CuSO4, not shown) is reported as “significant angiogenic stimulation”. The “Stimulation of new vessel growth in vivo” value in experiment [2] is given as “little effect”.
With “KGHK [N-lysyl-L-glycyl-L-histidyl-L-lysine- OH]”, the “Lowest application eliciting angiogenic activity in the CAM” value in experiment [3] amounted to 50 ng/disk. In experiment [4], the “Direct competition for limiting copper ions” value was “all copper ions were sequestered in a KGHK:Cu complex”. Further, the “Formation of 1:1 complex with magnesium” value in experiment [5] is reported as “did not form”. Besides, the “Change of absorbance on addition of copper ions” value in experiment [6] is listed as “increase in absorbance at 580 nm”.
